Laboratory results from patent US7407973B2, “Use of pirfenidone in therapeutic regimens” (Intermune, Inc., priority 2003, dated 2008).

Columns and labels:
SAPK = assay: Human kinase panel, overall conclusion: SAPK; format: biochemical
Method: (§1) Enzymatic activity of various human kinases was assayed in the presence and the absence of pirfenidone. Percent enzyme activity of various human enzymes in the presence of substrate and pirfenidone are shown in FIGS. 1-5, and in Table 2, below, where “percent enzyme activity” is the percent of the control activity (e.g., in the absence of pirfenidone): […]

STAT1 = assay: IFN-γ-induced STAT1 tyrosine phosphorylation in ME180 cells (immunoblot); format: cell-based, human; settings: serum-starved ME180 cells; 100 μg/ml Pirfenidone for 1 h, then 10 ng/ml IFN-γ for 0-60 min; anti-phospho STAT1 immunoblot
Method: ME180 cells were grown in DMEM supplemented with 10% heat inactivated fetal calf serum, 2 mM L-glutamine, streptomycin (100 μg/ml) and penicillin (100 units/ml). Briefly, cells were seeded at a density of 5×10^6 cells in 100 mm tissue culture dishes. After 24 hrs, cells were washed with phosphate-buffered saline (PBS) and incubated in serum free growth media for 16 hours, then treated with medium or with 100 μg/ml of Pirfenidone for 1 h before treating them with Actimune (10 ng/ml) for 0-10-20-40 and 60 min. At the end of incubation period, cells were lysed by incubation in 50 mM HEPES (pH 7.0) containing 100 mM NaCl, 1.2% Triton X-100, 10% glycerol, 1.5 mM MgCl2, 100 mM NaF, 10 mM sodium pyrophosphate, 1 mM sodium orthovanadate, 1 mM EGTA (ethylene glycol-bis-β-aminoethylether-tetraacetic acid), 1 mM DTT (dithiothreitol), 1 mM phenylmethylsulfonylfloride (PMSF), 0.15 unit/ml aprotinin, 10 μg/ml leupeptin, 10 μg/ml pepstatin. Lysates were clarified by centrifugation (12.000×g for 1 min.). Equal amounts (100 μg) total proteins were subjected to SDS-PAGE on 10% polyacrylamide gels to separate the proteins. The proteins were then electrophoretically transferred from the polyacrylamide gel onto a nitrocellulose sheet for overnight at 20 mAmp, and analyzed by immunoblotting with anti-phospho STAT1-specific antibody (antibody specific for phosphorylated STAT1). […]

PKCδ = PKCδ (Homo sapiens, UniProt Q05655); assay: Enzymatic activity of human kinase in presence of pirfenidone; format: biochemical; settings: percent of control activity in absence of pirfenidone, concentration not given
Method: as §1

Fyn = Fyn (Homo sapiens, UniProt P06241); assay: as above; format: biochemical; settings: percent of control activity in absence of pirfenidone, concentration not given
Method: as §1

PAK2 = PAK2 (Homo sapiens, UniProt Q13177); assay: as above; format: biochemical; settings: percent of control activity in absence of pirfenidone, concentration not given
Method: as §1

PKCη = PKCη (Homo sapiens, UniProt P24723); assay: as above; format: biochemical; settings: percent of control activity in absence of pirfenidone, concentration not given
Method: as §1

CDK7/cyclinD3 = assay: as above; format: biochemical; settings: percent of control activity in absence of pirfenidone, concentration not given
Method: as §1

IKKα = IKKα (Homo sapiens, UniProt O15111); assay: as above; format: biochemical; settings: percent of control activity in absence of pirfenidone, concentration not given
Method: as §1

Flt3 = Flt3 (Homo sapiens, UniProt P36888); assay: as above; format: biochemical; settings: percent of control activity in absence of pirfenidone, concentration not given
Method: as §1

PKCτ = assay: as above; format: biochemical; settings: percent of control activity in absence of pirfenidone, concentration not given
Method: as §1

CDK3/cyclinE = CDK3/cyclinE (Homo sapiens, UniProt Q00526); assay: as above; format: biochemical; settings: percent of control activity in absence of pirfenidone, concentration not given
Method: as §1

PKD2 = PKD2 (Homo sapiens, UniProt Q9BZL6); assay: as above; format: biochemical; settings: percent of control activity in absence of pirfenidone, concentration not given
Method: as §1

p70S6K = p70S6K (Homo sapiens, UniProt P23443); assay: as above; format: biochemical; settings: percent of control activity in absence of pirfenidone, concentration not given
Method: as §1

c-RAF = c-RAF (Homo sapiens, UniProt P04049); assay: as above; format: biochemical; settings: percent of control activity in absence of pirfenidone, concentration not given
Method: as §1

IKKβ = IKKβ (Homo sapiens, UniProt O14920); assay: as above; format: biochemical; settings: percent of control activity in absence of pirfenidone, concentration not given
Method: as §1

TrkB = TrkB (Homo sapiens, UniProt Q16620); assay: as above; format: biochemical; settings: percent of control activity in absence of pirfenidone, concentration not given
Method: as §1

Aurora-A = Aurora-A (Homo sapiens, UniProt O14965); assay: as above; format: biochemical; settings: percent of control activity in absence of pirfenidone, concentration not given
Method: as §1

MAPKAP-K2 = MAPKAP-K2 (Homo sapiens, UniProt P49137); assay: as above; format: biochemical; settings: percent of control activity in absence of pirfenidone, concentration not given
Method: as §1

SAPK3 = SAPK3 (Homo sapiens, UniProt P53778); assay: as above; format: biochemical; settings: percent of control activity in absence of pirfenidone, concentration not given
Method: as §1

MKK7β = MKK7β (Homo sapiens, UniProt O14733); assay: as above; format: biochemical; settings: percent of control activity in absence of pirfenidone, concentration not given
Method: as §1

CSK = CSK (Homo sapiens, UniProt P41240); assay: as above; format: biochemical; settings: percent of control activity in absence of pirfenidone, concentration not given
Method: as §1

PKCβII = PKCβII (Homo sapiens, UniProt P05771); assay: as above; format: biochemical; settings: percent of control activity in absence of pirfenidone, concentration not given
Method: as §1

PKCa = assay: as above; format: biochemical; settings: percent of control activity in absence of pirfenidone, concentration not given
Method: as §1

IR = IR (Homo sapiens, UniProt P06213); assay: as above; format: biochemical; settings: percent of control activity in absence of pirfenidone, concentration not given
Method: as §1

ZAP-70 = ZAP-70 (Homo sapiens, UniProt P43403); assay: as above; format: biochemical; settings: percent of control activity in absence of pirfenidone, concentration not given
Method: as §1

MKK6 = MKK6 (Homo sapiens, UniProt P52564); assay: as above; format: biochemical; settings: percent of control activity in absence of pirfenidone, concentration not given
Method: as §1

CHK1 = CHK1 (Homo sapiens, UniProt O14757); assay: as above; format: biochemical; settings: percent of control activity in absence of pirfenidone, concentration not given
Method: as §1

GSK3β = GSK3β (Homo sapiens, UniProt P49841); assay: as above; format: biochemical; settings: percent of control activity in absence of pirfenidone, concentration not given
Method: as §1

PKCo = assay: as above; format: biochemical; settings: percent of control activity in absence of pirfenidone, concentration not given
Method: as §1

CDK5/cyclinB = CDK5/cyclinB (Homo sapiens, UniProt Q00535); assay: as above; format: biochemical; settings: percent of control activity in absence of pirfenidone, concentration not given
Method: as §1

MEK1 = MEK1 (Homo sapiens, UniProt Q02750); assay: as above; format: biochemical; settings: percent of control activity in absence of pirfenidone, concentration not given
Method: as §1

TrkB, sequence (Q16620 32-822): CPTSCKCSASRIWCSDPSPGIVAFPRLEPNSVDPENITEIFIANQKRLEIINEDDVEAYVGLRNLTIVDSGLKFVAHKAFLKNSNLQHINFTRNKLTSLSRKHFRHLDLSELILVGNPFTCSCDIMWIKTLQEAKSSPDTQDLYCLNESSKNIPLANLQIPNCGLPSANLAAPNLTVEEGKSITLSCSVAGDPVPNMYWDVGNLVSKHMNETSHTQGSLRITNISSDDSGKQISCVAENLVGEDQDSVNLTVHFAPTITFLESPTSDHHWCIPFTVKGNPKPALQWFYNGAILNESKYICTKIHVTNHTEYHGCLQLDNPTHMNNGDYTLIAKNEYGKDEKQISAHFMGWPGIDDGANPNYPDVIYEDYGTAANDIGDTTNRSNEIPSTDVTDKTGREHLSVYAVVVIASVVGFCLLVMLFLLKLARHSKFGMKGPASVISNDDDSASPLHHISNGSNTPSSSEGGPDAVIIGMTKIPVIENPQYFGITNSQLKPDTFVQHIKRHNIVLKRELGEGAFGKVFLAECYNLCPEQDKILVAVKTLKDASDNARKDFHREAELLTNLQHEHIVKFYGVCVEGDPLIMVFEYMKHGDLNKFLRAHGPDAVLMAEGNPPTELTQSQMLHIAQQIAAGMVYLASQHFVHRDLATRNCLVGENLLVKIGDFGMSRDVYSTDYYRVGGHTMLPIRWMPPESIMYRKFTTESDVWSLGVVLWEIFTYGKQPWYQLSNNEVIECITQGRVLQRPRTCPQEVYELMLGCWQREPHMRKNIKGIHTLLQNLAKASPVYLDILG
CSK, sequence (P41240 whole entry): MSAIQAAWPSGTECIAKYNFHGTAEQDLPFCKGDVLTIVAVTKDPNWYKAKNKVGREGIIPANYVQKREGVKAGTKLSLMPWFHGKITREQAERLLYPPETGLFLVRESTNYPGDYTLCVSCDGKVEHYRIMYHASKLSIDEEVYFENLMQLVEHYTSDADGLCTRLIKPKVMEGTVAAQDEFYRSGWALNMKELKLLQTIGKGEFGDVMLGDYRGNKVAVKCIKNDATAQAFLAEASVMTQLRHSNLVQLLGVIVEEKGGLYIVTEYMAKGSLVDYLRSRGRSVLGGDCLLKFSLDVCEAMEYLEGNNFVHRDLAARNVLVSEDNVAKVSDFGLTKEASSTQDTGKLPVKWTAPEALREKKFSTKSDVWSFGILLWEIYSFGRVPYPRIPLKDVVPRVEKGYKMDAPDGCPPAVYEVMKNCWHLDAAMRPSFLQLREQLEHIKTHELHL
SAPK3, sequence (P53778 whole entry): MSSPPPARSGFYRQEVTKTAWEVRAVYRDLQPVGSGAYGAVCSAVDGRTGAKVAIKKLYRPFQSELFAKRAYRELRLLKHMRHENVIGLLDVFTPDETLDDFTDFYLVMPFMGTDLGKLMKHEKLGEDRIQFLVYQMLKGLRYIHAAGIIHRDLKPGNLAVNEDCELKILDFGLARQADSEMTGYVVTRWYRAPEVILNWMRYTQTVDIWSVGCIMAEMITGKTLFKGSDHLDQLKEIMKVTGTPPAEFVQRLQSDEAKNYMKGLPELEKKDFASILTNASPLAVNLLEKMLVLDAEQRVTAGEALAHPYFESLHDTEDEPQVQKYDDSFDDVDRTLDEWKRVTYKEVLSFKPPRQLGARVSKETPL
CDK5/cyclinB, sequence (Q00535 whole entry): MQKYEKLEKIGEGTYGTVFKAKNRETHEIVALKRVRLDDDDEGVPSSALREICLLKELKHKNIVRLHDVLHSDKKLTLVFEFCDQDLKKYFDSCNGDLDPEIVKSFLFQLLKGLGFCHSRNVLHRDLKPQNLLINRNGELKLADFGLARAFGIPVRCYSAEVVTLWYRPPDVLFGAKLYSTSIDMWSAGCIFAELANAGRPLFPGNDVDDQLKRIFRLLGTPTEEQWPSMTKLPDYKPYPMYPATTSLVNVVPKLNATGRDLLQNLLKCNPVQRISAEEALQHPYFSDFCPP
IR, sequence (P06213 28-1382): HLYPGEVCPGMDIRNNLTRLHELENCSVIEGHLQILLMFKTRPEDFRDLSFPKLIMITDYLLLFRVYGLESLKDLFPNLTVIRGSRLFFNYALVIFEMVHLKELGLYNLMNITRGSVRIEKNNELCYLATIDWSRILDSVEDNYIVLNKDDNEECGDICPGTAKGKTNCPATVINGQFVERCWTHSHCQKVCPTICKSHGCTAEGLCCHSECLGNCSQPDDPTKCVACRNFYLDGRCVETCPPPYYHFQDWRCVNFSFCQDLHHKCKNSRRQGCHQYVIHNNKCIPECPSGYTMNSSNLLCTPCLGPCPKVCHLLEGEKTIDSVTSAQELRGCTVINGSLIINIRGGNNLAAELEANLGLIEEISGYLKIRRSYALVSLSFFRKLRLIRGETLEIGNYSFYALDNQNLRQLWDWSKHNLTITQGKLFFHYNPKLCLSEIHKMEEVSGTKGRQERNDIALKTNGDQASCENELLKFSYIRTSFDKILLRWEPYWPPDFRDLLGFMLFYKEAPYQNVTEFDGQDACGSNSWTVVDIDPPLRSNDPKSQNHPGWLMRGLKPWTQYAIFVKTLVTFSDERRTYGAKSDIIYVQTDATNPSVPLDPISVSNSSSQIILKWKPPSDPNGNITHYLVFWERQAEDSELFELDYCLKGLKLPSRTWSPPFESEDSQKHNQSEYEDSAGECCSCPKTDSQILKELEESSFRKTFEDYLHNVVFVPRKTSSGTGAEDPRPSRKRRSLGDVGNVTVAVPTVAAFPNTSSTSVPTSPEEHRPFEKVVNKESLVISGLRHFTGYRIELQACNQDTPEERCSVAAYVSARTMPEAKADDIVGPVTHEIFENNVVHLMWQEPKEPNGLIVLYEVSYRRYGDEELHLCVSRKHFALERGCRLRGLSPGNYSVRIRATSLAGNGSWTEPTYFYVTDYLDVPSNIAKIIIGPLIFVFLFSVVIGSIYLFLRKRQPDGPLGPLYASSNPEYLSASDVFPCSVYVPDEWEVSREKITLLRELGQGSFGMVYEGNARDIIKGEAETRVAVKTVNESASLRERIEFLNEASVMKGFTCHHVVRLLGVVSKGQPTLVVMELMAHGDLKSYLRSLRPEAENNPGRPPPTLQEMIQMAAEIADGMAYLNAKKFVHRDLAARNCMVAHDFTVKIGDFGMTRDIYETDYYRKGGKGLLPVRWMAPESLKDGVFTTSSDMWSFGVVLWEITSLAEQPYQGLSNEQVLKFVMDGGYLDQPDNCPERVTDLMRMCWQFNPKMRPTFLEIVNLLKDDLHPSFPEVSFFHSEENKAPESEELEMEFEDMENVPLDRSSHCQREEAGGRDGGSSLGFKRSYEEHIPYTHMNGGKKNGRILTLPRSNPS
Flt3, sequence (P36888 27-993): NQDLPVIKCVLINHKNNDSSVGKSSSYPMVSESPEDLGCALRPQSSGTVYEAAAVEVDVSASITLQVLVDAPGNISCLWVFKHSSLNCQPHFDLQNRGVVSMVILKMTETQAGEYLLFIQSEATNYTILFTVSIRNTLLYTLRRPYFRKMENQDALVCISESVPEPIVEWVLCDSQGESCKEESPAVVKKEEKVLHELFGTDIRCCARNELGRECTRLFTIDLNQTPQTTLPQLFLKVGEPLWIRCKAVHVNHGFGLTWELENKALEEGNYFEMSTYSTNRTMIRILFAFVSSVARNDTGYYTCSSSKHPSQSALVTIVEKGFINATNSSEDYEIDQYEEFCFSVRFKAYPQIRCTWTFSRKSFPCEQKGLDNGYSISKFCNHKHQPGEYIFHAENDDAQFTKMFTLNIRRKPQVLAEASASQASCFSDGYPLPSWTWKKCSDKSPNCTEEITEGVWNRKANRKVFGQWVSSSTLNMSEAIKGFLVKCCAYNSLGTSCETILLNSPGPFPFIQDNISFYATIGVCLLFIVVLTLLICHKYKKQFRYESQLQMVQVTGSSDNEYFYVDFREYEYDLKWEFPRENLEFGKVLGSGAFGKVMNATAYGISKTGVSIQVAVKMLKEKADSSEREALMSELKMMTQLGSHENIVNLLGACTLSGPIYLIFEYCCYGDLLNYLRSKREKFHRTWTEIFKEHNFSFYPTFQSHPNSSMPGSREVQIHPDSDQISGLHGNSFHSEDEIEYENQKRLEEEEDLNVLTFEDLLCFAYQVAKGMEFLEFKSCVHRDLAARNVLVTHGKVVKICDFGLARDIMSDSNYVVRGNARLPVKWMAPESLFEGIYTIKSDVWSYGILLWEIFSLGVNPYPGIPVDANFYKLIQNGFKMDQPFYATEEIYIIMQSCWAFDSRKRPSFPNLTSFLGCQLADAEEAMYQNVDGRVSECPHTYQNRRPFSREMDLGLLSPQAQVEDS
c-RAF, sequence (P04049 whole entry): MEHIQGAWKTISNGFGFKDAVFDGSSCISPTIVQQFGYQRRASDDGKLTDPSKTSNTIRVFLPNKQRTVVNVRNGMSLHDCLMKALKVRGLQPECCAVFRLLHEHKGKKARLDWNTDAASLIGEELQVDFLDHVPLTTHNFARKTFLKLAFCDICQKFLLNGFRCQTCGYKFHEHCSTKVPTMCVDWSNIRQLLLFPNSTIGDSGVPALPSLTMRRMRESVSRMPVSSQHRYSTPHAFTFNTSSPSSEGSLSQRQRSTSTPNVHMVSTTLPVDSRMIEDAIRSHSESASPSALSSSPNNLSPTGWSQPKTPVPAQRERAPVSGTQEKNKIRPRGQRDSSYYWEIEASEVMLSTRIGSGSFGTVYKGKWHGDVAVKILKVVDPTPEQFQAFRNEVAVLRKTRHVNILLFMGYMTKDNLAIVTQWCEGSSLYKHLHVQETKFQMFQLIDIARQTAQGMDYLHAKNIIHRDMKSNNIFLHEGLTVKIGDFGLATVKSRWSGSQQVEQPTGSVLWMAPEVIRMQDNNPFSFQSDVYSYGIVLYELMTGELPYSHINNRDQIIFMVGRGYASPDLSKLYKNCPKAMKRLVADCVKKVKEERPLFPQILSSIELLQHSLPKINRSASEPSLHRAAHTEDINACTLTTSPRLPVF

Q: Which results are given for `Cc1ccc(=O)n(-c2ccccc2)c1` [pirfenidone, 5-methyl-1-phenyl-2-(1H)-pyridone]?
A: Inhibition of SAPK (conclusion from Table 2 data) (SAPK): is an inhibitor of SAPK; Effect on IFN-γ-induced STAT1 tyrosine phosphorylation (STAT1): does not affect; % Activity (PKCδ): 102%; % Activity (Fyn): 97%; % Activity (PAK2): 93%; % Activity (PKCη): 88%; % Activity (CDK7/cyclinD3): 92%; % Activity (IKKα): 114%; % Activity (Flt3): 103%; % Activity (PKCτ): 96%; % Activity (CDK3/cyclinE): 86%; % Activity (PKD2): 98%; % Activity (p70S6K): 96%; % Activity (c-RAF): 91%; % Activity (IKKβ): 90%; % Activity (TrkB): 101%; % Activity (Aurora-A): 120%; % Activity (MAPKAP-K2): 97%; % Activity (SAPK3): 46%; % Activity (MKK7β): 105%; % Activity (CSK): 64%; % Activity (PKCβII): 100%; % Activity (PKCa): 96%; % Activity (IR): 97%; % Activity (ZAP-70): 109%; % Activity (MKK6): 84%; % Activity (CHK1): 105%; % Activity (GSK3β): 91%; % Activity (PKCo): 106%; % Activity (CDK5/cyclinB): 102%; % Activity (MEK1): 100%
